Test results reported in US8906939B2, “3-cyano-4-(4-tetrahydropyran-phenyl)-pyridin-2-one derivatives” (Janssen Pharmaceuticals, Inc., priority 2007, dated 2014).

Tests used:
human mGluR2 receptor = target: T1, human mGluR2 receptor (Homo sapiens, UniProt Q14416); assay: [35S]GTPγS binding assay, mGluR2 positive allosteric modulation (GTPγS-PAM); format: biochemical; conditions: membranes from CHO cells transfected with human mGluR2; in presence of glutamate at EC25 concentration; averages of duplicate values of 11-concentration response curves; read-out: GTPgS - hR2 PAM pEC50 (converted)
T1 construct: expressed in transfected cells; host or cells: CHO cells (membrane preparation)
From the text: The compounds provided in the present invention are positive allosteric modulators of mGluR2. These compounds appear to potentiate glutamate responses by binding to an allosteric site other than the glutamate binding site. The response of mGluR2 to a concentration of glutamate is increased when compounds of formula (I) are present. Compounds of formula (I) are expected to have their effect substantially at mGluR2 by virtue of their ability to enhance the function of the receptor. The behaviour of positive allosteric modulators tested at mGluR2 using the [^35S]GTPγS binding assay method described below and which is suitable for the identification of such compounds, and more particularly the compounds according to formula (I), are shown in Table 3.
[^35S]GTPγS Binding Assay
The [^35S]GTPγS binding assay is a functional membrane-based assay used to study G-protein coupled receptor (GPCR) function whereby incorporation of a non-hydrolysable form of GTP, [^35S]GTPγS (guanosine 5′-triphosphate, labelled with […] ^35S), is measured. The G-protein […] subunit catalyzes the exchange of guanosine 5′-diphosphate (GDP) by guanosine triphosphate (GTP) and on activation of the GPCR by an agonist, [^35S]GTPγS, becomes incorporated and cannot be cleaved to continue the exchange cycle (Harper (1998) Current Protocols in Pharmacology 2.6.1-10, John Wiley & Sons, Inc.). […] Here we describe the use of the [^35S]GTPγS binding assay using membranes from cells transfected with the human mGluR2 receptor and adapted from Schaffhauser et al ((2003) Molecular Pharmacology 4:798-810) for the detection of the positive allosteric modulation (PAM) properties of the compounds of this invention.
CHO-cells were cultured to pre-confluence and stimulated with 5 mM butyrate for 24 hours, prior to washing in PBS, and then collection by scraping in homogenisation buffer (50 mM Tris-HCl buffer, pH 7.4, 4° C.). Cell lysates were homogenized briefly (15s) using an ultra-turrax homogenizer. The homogenate was centrifuged at 23 500×g for 10 minutes and the supernatant discarded. The pellet was resuspended in 5 mM Tris-HCl, pH 7.4 and centrifuged again (30 000×g, 20 min, 4° C.). The final pellet was resuspended in 50 mM HEPES, pH 7.4 and stored at −80° C. in appropriate aliquots before use. Protein concentration was determined by the Bradford method (Bio-Rad, USA) with bovine serum albumin as standard.
Measurement of mGluR2 positive allosteric modulatory activity of test compounds in membranes containing human mGluR2 was performed using frozen membranes that were thawed and briefly homogenised prior to pre-incubation in 96-well microplates (15 μg/assay well, 30 minutes, 30° C.) in assay buffer (50 mM HEPES pH 7.4, 100 mM NaCl, 3 mM MgCl2, 50 μM GDP, 10 μg/ml saponin,) with increasing concentrations of positive allosteric modulator (from 0.3 nM to 50 μM) and either a minimal pre-determined concentration of glutamate (PAM assay), or no added glutamate. For the PAM assay, membranes were pre-incubated with glutamate at EC25 concentration, i.e. a concentration that gives 25% of the maximal response glutamate, and is in accordance to published data (Pin et al. (1999) Eur. J. Pharmacol. 375:277-294). After addition of [^35S]GTPγS (0.1 nM, f.c.) to achieve a total reaction volume of 200 μl, microplates were shaken briefly and further incubated to allow [^35S]GTPγS incorporation on activation (30 minutes, 30° C.). The reaction was stopped by rapid vacuum filtration over glass-fibre filter plates (Unifilter 96-well GF/B filter plates, Perkin-Elmer, Downers Grove, USA) microplate using a 96-well plate cell harvester (Filtermate, Perkin-Elmer, USA), and then by washing three times with 300 μl of ice-cold wash buffer (Na2PO4.2H2O 10 mM, NaH2PO4.H2O 10 mM, pH=7.4). […]

T1 sequence (Q14416 19-872): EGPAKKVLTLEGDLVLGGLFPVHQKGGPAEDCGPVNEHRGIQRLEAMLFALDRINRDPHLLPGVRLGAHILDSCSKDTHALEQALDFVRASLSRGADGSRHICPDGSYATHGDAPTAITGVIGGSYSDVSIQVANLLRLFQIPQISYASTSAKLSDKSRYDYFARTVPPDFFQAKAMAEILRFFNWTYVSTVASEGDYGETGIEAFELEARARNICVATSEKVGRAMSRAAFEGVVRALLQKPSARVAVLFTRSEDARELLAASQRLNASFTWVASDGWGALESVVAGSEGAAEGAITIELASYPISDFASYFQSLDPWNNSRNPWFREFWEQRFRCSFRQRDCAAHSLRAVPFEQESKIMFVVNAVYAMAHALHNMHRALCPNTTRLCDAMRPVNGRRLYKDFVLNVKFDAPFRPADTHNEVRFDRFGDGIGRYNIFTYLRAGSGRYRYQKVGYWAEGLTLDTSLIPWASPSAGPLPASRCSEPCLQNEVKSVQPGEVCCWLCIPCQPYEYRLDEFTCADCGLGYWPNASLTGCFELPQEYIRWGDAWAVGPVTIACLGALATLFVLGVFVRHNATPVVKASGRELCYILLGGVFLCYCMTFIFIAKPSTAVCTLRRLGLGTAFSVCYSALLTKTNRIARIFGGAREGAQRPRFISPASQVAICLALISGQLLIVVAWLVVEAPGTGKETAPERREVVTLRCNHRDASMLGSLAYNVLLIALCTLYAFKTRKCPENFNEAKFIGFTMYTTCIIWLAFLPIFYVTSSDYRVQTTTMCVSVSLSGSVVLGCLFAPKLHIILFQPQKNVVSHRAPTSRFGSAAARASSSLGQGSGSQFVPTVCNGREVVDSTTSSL

Row | SMILES | EC50 (human mGluR2 receptor) [nM] | melting point [°C]
1 | N#Cc1c(-c2ccc(NC3CCOCC3)c(C(F)(F)F)c2)ccn(CC2CC2)c1=O [Compound 3, 1-Cyclopropylmethyl-2-oxo-4-[4-(tetrahydro-pyran-4-ylamino)-3-trifluoromethyl-phenyl]-1,2-dihydro-pyridine-3-carbonitrile] | 1230 | –
2 | N#Cc1c(-c2ccc(NC3CCOCC3)c(F)c2)ccn(CC2CC2)c1=O [Compound 1, 1-Cyclopropylmethyl-4-[3-fluoro-4-(tetrahydro-pyran-4-ylamino)-phenyl]-2-oxo-1,2-dihydro-pyridine-3-carbonitrile] | ~1000 | 249.5
3 | CC(C)CCn1ccc(-c2ccc(OC3CCOCC3)c(Cl)c2)c(C#N)c1=O [Compound 5] | 162 | –
4 | N#Cc1c(-c2ccc(OC3CCOCC3)c(Cl)c2)ccn(CCC2CC2)c1=O [Compound 4, 4-[3-Chloro-4-(tetrahydro-pyran-4-yloxy)-phenyl]-1-(2-cyclopropyl-ethyl)-2-oxo-1,2-dihydro-pyridine-3-carbonitrile] | 282 | –
5 | N#Cc1c(-c2ccc(NC3CCOCC3)c(Cl)c2)ccn(CC2CC2)c1=O [Compound 2, 1-Cyclopropylmethyl-4-[3-chloro-4-(tetrahydro-pyran-4-ylamino)-phenyl]-2-oxo-1,2-dihydro-pyridine-3-carbonitrile] | 676 | –

Further lines, results first:

Row | EC50 (human mGluR2 receptor) [nM] | melting point [°C] | SMILES
6 | 437 | – | N#Cc1c(-c2ccc(NC3CCOCC3)c(C(F)(F)F)c2)ccn(CCC2CC2)c1=O [Compound 7]
7 | 2510 | 195 | CCCCn1ccc(-c2ccc(NC3CCOCC3)cc2)c(C#N)c1=O [Compound 8]
8 | 631 | 136 | CCCCn1ccc(-c2ccc(OC3CCOCC3)cc2F)c(C#N)c1=O [Compound 9]
9 | 316 | – | CC(C)CCn1ccc(-c2ccc(NC3CCOCC3)c(Cl)c2)c(C#N)c1=O [Compound 12]
10 | 1580 | – | CC(C)CCn1ccc(-c2ccc(NC3CCOCC3)cc2F)c(C#N)c1=O [Compound 10]
11 | 219 | > 300 | N#Cc1c(-c2ccc(NC3CCOCC3)c(Cl)c2)ccn(CCC2CC2)c1=O [Compound 6]
12 | 398 | – | CC(C)CCn1ccc(-c2ccc(NC3CCOCC3)c(F)c2)c(C#N)c1=O [Compound 11]
